Experiments:
Type in all cases: functional
[1] = molecular target: T1, Cdk-related protein kinase 6 (Plasmodium falciparum, UniProt O77239); experiment: Final concentrations were 1.5 uM ATP, 5 mM MnCl2, and 15 ug/ml PK6 in a buffer of 100 mM Tris-HCl (pH 7.5). 50 ug/mL MBP was provided as the substrate; 10 uM staurosporine was used as a control inhibitor. Incubation time was 3 hours and 40 minutes.The catalytic activity of each kinase was considered proportional to ATP consumed, as determined from measurements of residual [ATP] with the luciferase-based reagent Kinase-Glo (Promega) following incubation. Luminescence (proportional to residual [ATP]) was measured on the plate readers FLx800 (BioTek Instruments, Winooski, VT, USA) and MicroBeta2.
T1 sequence (O77239 whole entry): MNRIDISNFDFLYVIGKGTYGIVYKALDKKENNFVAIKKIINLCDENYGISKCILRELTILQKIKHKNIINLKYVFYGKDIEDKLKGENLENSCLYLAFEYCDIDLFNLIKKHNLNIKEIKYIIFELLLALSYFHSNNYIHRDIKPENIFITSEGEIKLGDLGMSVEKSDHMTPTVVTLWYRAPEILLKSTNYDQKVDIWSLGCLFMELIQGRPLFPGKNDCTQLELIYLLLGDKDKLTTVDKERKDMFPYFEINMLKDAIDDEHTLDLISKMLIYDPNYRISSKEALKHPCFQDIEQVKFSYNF

[2] = molecular target: T2, Putative uncharacterized protein pk7 (Plasmodium falciparum, UniProt O96214); experiment: Final concentrations were 1 uM ATP, 2 mM DTT, 20 mM MgCl2, 2 mM MnCl2, 0.01% BSA, and 6 ug/ml PK7, in a buffer of 20 mM Tris-HCl (pH 7.5). The enzyme itself was the only substrate present (since autophosphorylation occurs); 100 uM 1NA-PP1 was used as a control inhibitor. Incubation time was 3 hours.
T2 sequence (O96214 whole entry): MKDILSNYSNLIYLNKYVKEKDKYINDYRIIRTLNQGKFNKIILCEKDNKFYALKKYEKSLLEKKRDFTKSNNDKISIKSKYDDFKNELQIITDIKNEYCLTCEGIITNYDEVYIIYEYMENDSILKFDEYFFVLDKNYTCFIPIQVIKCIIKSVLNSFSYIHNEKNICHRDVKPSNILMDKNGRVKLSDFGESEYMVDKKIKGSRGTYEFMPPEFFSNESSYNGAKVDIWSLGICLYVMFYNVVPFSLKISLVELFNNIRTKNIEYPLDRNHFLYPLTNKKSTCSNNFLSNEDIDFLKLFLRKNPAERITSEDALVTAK

[3] = molecular target: T3, Mitogen-activated protein kinase (Plasmodium falciparum, UniProt Q25917); experiment: Final concentrations were 1 uM ATP, 0.5 mM DTT, 1 mM MgCl2, 0.5 mg/mL BSA, and 10 ug/ml MAP2 in a buffer of 50 mM HEPES (pH 7.0). 0.5 mg/mL histone III-S served as the substrate (13); 100 uM AMP-PNP, an ATP analog, was used as a control inhibitor. Incubation time was 4 hours.
T3 sequence (Q25917 whole entry): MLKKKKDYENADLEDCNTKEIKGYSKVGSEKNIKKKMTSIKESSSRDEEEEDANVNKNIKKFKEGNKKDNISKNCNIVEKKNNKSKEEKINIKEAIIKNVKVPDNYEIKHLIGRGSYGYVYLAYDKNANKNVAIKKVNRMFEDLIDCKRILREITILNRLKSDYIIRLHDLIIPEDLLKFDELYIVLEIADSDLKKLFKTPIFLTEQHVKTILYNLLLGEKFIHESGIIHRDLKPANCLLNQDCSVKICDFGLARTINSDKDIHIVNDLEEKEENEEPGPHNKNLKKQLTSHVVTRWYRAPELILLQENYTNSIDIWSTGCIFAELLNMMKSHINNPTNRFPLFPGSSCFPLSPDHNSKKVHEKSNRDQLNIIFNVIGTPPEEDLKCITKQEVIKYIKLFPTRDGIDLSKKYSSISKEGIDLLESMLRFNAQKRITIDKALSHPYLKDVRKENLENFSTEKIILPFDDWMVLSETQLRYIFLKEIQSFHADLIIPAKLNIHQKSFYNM

[4] = molecular target: Calcium-dependent protein kinase 1 (Plasmodium falciparum, UniProt P62344); experiment: MMV: CDPK1 Protein kinase inhibition assay using recombinant PfCDPK1, syntide 2 peptide substrate, ATP and KinaseGlo to measure % inhibition at 1 uM MMV box compound.
[5] = molecular target: T4, Calcium-dependent protein kinase 4 (Plasmodium falciparum (isolate 3D7), UniProt Q8IBS5); experiment: MMV: CDPK4 Protein kinase inhibition assay using recombinant PfCDPK4, syntide2 peptide substrate, ATP and KinaseGlo to measure % inhibition at 1 uM MMV box compound.
T4 sequence (Q8IBS5 whole entry): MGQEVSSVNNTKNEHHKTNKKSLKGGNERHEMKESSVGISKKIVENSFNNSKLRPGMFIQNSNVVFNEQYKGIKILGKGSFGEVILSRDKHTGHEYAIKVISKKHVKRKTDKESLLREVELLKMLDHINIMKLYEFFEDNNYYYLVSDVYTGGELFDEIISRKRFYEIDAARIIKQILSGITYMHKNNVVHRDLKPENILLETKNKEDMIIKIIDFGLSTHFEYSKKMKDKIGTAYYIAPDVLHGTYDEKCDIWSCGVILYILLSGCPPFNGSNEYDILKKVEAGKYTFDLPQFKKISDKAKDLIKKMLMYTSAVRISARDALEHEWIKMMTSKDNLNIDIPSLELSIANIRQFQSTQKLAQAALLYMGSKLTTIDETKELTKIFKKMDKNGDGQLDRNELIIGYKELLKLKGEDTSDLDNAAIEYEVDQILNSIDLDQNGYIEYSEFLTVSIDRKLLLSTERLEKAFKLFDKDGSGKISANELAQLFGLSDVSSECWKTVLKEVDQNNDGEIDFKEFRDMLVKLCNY

Proline--tRNA ligase = molecular target: T5, Proline--tRNA ligase (Plasmodium falciparum (isolate 3D7), UniProt Q8I5R7); experiment: MMV: ProRS recombinant Plasmodium falciparum Prolyl-tRNA-synthetase, assay with yeast tRNA, ATP, and proline and 3 uM MMV malaria box compound, assay read out with kinase glo as % inhibition.
T5 sequence (Q8I5R7 whole entry): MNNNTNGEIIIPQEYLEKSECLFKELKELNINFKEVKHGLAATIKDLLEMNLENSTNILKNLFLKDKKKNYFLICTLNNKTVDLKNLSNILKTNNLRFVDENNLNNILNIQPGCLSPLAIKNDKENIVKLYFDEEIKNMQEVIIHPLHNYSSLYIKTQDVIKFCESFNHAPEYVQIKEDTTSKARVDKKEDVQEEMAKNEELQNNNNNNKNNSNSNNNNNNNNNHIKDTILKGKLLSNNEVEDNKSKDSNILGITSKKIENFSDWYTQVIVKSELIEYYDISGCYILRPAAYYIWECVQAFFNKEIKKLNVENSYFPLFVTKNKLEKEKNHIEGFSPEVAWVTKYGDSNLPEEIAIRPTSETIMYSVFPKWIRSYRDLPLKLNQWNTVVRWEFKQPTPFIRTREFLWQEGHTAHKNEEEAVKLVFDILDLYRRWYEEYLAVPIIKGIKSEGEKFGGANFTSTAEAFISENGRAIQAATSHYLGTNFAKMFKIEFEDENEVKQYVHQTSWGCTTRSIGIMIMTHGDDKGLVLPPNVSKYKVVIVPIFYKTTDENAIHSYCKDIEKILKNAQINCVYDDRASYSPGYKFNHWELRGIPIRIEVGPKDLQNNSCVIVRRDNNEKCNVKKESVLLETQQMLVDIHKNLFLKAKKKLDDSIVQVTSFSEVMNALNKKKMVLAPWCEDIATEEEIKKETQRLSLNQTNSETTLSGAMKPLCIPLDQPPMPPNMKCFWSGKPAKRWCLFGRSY

Lysine--tRNA ligase = Lysine--tRNA ligase (Plasmodium falciparum (isolate 3D7), UniProt Q8IDJ8); experiment: MMV: KRS recombinant Plasmodium falciparum Lysyl-tRNA-synthetase, assay with yeast tRNA, ATP, and lysine and 3 uM MMV malaria box compound, assay read out with kinase glo as % inhibition.
Chain of Lysine--tRNA ligase (Q8IDJ8 whole entry): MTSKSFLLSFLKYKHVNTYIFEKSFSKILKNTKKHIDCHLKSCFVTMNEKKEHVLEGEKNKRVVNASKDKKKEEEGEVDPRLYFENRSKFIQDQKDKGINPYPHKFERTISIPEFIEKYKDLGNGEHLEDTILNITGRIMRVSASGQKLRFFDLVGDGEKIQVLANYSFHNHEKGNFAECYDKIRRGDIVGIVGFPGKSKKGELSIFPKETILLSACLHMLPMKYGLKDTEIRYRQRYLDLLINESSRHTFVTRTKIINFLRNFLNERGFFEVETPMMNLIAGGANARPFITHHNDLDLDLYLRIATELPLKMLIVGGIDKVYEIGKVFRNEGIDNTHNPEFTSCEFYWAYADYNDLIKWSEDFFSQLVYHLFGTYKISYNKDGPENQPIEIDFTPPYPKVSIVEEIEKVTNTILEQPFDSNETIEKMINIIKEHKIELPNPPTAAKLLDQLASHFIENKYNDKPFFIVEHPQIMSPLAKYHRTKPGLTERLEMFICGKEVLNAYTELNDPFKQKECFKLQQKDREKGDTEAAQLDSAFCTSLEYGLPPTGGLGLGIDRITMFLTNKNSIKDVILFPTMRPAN

Chain of Calcium-dependent protein kinase 1 (P62344 whole entry): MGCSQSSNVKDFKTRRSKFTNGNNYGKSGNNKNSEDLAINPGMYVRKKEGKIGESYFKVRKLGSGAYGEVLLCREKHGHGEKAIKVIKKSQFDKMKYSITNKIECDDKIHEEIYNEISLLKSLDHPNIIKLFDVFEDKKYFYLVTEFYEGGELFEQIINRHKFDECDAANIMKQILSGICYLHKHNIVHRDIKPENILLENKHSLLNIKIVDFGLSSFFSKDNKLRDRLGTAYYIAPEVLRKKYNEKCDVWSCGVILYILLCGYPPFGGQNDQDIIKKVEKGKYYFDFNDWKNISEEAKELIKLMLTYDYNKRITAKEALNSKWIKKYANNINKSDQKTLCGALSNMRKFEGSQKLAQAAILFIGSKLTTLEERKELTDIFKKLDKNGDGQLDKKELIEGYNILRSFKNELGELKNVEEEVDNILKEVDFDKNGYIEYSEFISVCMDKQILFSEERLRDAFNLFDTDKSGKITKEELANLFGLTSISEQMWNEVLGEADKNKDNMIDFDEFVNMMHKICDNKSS

SMILES | IC50 [1] [nM] | IC50 [2] [nM] | IC50 [3] [nM] | IC50 [4] [nM] | IC50 [5] [nM] | IC50 (Proline--tRNA ligase) [nM] | IC50 (Lysine--tRNA ligase) [nM]
N=c1n(CCN2CCCCC2)c2ccccc2n1CC(O)c1cccc(Br)c1 (stereo not given) | > 1000 | > 1000 | > 1000 | > 1000 | > 1000 | > 2500 | > 2500
COc1cccc(O)c1CN1CCC2(CCCN(Cc3ccc(F)cc3)C2)C1 (stereo not given) | > 1000 | > 1000 | > 1000 | > 1000 | > 1000 | > 2500 | > 2500
O=C(NCc1ccco1)C1CCN(S(=O)(=O)c2ccc(Cl)cc2)CC1 | > 1000 | > 1000 | > 1000 | > 1000 | > 1000 | > 2500 | > 2500
FC(F)(F)c1ccc(Nc2nnnc3ccccc23)cc1 | > 1000 | > 1000 | > 1000 | > 1000 | > 1000 | > 2500 | > 2500
c1ccc(-c2ccc(-c3nc4ccccc4[nH]3)cc2)cc1 | > 1000 | > 1000 | > 1000 | > 1000 | > 1000 | > 2500 | > 2500
COc1cccc(NC(=O)Cn2c(C)c(C#N)c3ccccc32)c1 | > 1000 | > 1000 | > 1000 | > 1000 | > 1000 | > 2500 | > 2500
CC(C)=CCN1CCC(C(=O)Nc2ccc(-c3nc4ccccc4[nH]3)cc2)CC1 | > 1000 | > 1000 | > 1000 | > 1000 | > 1000 | > 2500 | > 2500
O=C(CCc1ccco1)NC1CCN(CC2(c3ccc(Cl)cc3)CCC2)CC1 | > 1000 | > 1000 | > 1000 | > 1000 | > 1000 | > 2500 | > 2500
FC(F)(F)c1cccc(Nc2nc(-c3ccccc3)nc3ncccc23)c1 | > 1000 | > 1000 | > 1000 | > 1000 | > 1000 | > 2500 | > 2500
CCN1CCN(c2cc(C)c3cc(NC(=O)c4ccc(OC)c(OC)c4)ccc3n2)CC1 | > 1000 | > 1000 | > 1000 | > 1000 | > 1000 | > 2500 | > 2500
